Source: PubChem BioAssay AID1918953 (Molecular Pharmacology Branch, DTP, NCI, 2023)
Several values for one entry are separate records, joined by “and”; a condition that tells them apart may be missing. Identical values can stand only once.

System: MDA-MB-231 complex spheroid viability
Experiment: Anticancer human tumor MDA-MB-231/ATCC cell line growth inhibition;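 note: drug exposure lasted 7 days starting on day 3 of spheroid growth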
Conditions: for viability, T/C: stronger effect = lower value
Procedure, shortened: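 Multicellular complex spheroids of tumor cells with human endothelial cells (HUVEC) and mesenchymal stem cells; the LSD1 inhibitor iadademstat was combined with standard-of-care or investigational agents. Top concentration at or near clinical Cmax, half-log dilutions; final DMSO ≤0.25%.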

[1] = curve of first compound, second compound 0.1 µM
[2] = curve of first compound, second compound 0.316 µM
[3] = curve of first compound, second compound 1 µM
[4] = curve of first compound, second compound 3.16 µM
[5] = curve of first compound, second compound 10 µM
[6] = second compound 0.1 µM, first compound 0.0316 µM
[7] = second compound 0.1 µM, first compound 0.1 µM
[8] = second compound 0.316 µM, first compound 0.0316 µM
[9] = second compound 0.316 µM, first compound 0.1 µM
[10] = second compound 1 µM, first compound 0.0316 µM
[11] = second compound 1 µM, first compound 0.1 µM
[12] = second compound 3.16 µM, first compound 0.0316 µM
[13] = second compound 3.16 µM, first compound 0.1 µM
[14] = second compound 10 µM, first compound 0.0316 µM
[15] = second compound 10 µM, first compound 0.1 µM
[16] = second compound 0.1 µM, first compound 0.316 µM
[17] = second compound 0.1 µM, first compound 1 µM
[18] = second compound 0.1 µM, first compound 3.16 µM
[19] = second compound 0.1 µM, first compound 10 µM
[20] = second compound 0.316 µM, first compound 0.316 µM
[21] = second compound 0.316 µM, first compound 1 µM
[22] = second compound 0.316 µM, first compound 3.16 µM
[23] = second compound 0.316 µM, first compound 10 µM
[24] = second compound 1 µM, first compound 0.316 µM
[25] = second compound 1 µM, first compound 1 µM
[26] = second compound 1 µM, first compound 3.16 µM
[27] = second compound 1 µM, first compound 10 µM
[28] = second compound 3.16 µM, first compound 0.316 µM
[29] = second compound 3.16 µM, first compound 1 µM
[30] = second compound 3.16 µM, first compound 3.16 µM
[31] = second compound 3.16 µM, first compound 10 µM
[32] = second compound 10 µM, first compound 0.316 µM
[33] = second compound 10 µM, first compound 1 µM
[34] = second compound 10 µM, first compound 3.16 µM
[35] = second compound 10 µM, first compound 10 µM
[36] = second compound 0.1 µM, first compound 0.00949 µM
[37] = second compound 0.1 µM, first compound 0.03 µM
[38] = second compound 0.1 µM, first compound 0.0949 µM
[39] = second compound 0.1 µM, first compound 0.3 µM
[40] = second compound 0.1 µM, first compound 0.949 µM
[41] = second compound 0.1 µM, first compound 3 µM
[42] = second compound 0.316 µM, first compound 0.00949 µM
[43] = second compound 0.316 µM, first compound 0.03 µM
[44] = second compound 0.316 µM, first compound 0.0949 µM
[45] = second compound 0.316 µM, first compound 0.3 µM
[46] = second compound 0.316 µM, first compound 0.949 µM
[47] = second compound 0.316 µM, first compound 3 µM
[48] = second compound 1 µM, first compound 0.00949 µM
[49] = second compound 1 µM, first compound 0.03 µM
[50] = second compound 1 µM, first compound 0.0949 µM
[51] = second compound 1 µM, first compound 0.3 µM
[52] = second compound 1 µM, first compound 0.949 µM
[53] = second compound 1 µM, first compound 3 µM
[54] = second compound 3.16 µM, first compound 0.00949 µM
[55] = second compound 3.16 µM, first compound 0.03 µM
[56] = second compound 3.16 µM, first compound 0.0949 µM
[57] = second compound 3.16 µM, first compound 0.3 µM
[58] = second compound 3.16 µM, first compound 0.949 µM
[59] = second compound 3.16 µM, first compound 3 µM
[60] = second compound 10 µM, first compound 0.00949 µM
[61] = second compound 10 µM, first compound 0.03 µM
[62] = second compound 10 µM, first compound 0.0949 µM
[63] = second compound 10 µM, first compound 0.3 µM
[64] = second compound 10 µM, first compound 0.949 µM
[65] = second compound 10 µM, first compound 3 µM

Cn1ncnc1C1c2n[nH]c(=O)c3cc(F)cc(c23)NC1c1ccc(F)cc1 (configuration not stated) + NC1CCC(NC2CC2c2ccccc2)CC1
IC50 [1]: > 0.1 µM
IC50 [2]: > 0.1 µM
IC50 [3]: > 0.1 µM
IC50 [4]: > 0.1 µM
IC50 [5]: < 0.000316 µM
viability, T/C (second compound 0.1 µM, first compound 0.000316 µM): 95.7%
viability, T/C (second compound 0.1 µM, first compound 0.001 µM): 97.2%
viability, T/C (second compound 0.1 µM, first compound 0.00316 µM): 92.5%
viability, T/C (second compound 0.1 µM, first compound 0.01 µM): 81.9%
viability, T/C [6]: 80.4%
viability, T/C [7]: 78.7%
viability, T/C (second compound 0.316 µM, first compound 0.000316 µM): 95.4%
viability, T/C (second compound 0.316 µM, first compound 0.001 µM): 95.6%
viability, T/C (second compound 0.316 µM, first compound 0.00316 µM): 84.6%
viability, T/C (second compound 0.316 µM, first compound 0.01 µM): 80.7%
viability, T/C [8]: 77.7%
viability, T/C [9]: 75.2%
viability, T/C (second compound 1 µM, first compound 0.000316 µM): 92.3%
viability, T/C (second compound 1 µM, first compound 0.001 µM): 89.9%
viability, T/C (second compound 1 µM, first compound 0.00316 µM): 87.8%
viability, T/C (second compound 1 µM, first compound 0.01 µM): 81.3%
viability, T/C [10]: 72.2%
viability, T/C [11]: 70.7%
viability, T/C (second compound 3.16 µM, first compound 0.000316 µM): 70.8%
viability, T/C (second compound 3.16 µM, first compound 0.001 µM): 68.9%
viability, T/C (second compound 3.16 µM, first compound 0.00316 µM): 64.5%
viability, T/C (second compound 3.16 µM, first compound 0.01 µM): 60.4%
viability, T/C [12]: 59.1%
viability, T/C [13]: 60.9%
viability, T/C (second compound 10 µM, first compound 0.000316 µM): 48.3%
viability, T/C (second compound 10 µM, first compound 0.001 µM): 50.3%
viability, T/C (second compound 10 µM, first compound 0.00316 µM): 48.9%
viability, T/C (second compound 10 µM, first compound 0.01 µM): 42.2%
viability, T/C [14]: 45.9%
viability, T/C [15]: 44.6%

CC1(C)CCC(CN2CCN(c3ccc(C(=O)NS(=O)(=O)c4ccc(NCC5CCOCC5)c([N+](=O)[O-])c4)c(Oc4cnc5[nH]ccc5c4)c3)CC2)=C(c2ccc(Cl)cc2)C1 + NC1CCC(NC2CC2c2ccccc2)CC1
IC50 [1]: 6.76 µM
IC50 [2]: 6.45 µM
IC50 [3]: 5.38 µM
IC50 [4]: 3.86 µM
IC50 [5]: 0.735 µM
viability, T/C [6]: 100%
viability, T/C [7]: 98.6%
viability, T/C [16]: 100%
viability, T/C [17]: 102%
viability, T/C [18]: 92.6%
viability, T/C [19]: 27.8%
viability, T/C [8]: 102%
viability, T/C [9]: 103%
viability, T/C [20]: 97.3%
viability, T/C [21]: 97.3%
viability, T/C [22]: 86%
viability, T/C [23]: 27.6%
viability, T/C [10]: 98.9%
viability, T/C [11]: 95.6%
viability, T/C [24]: 99.4%
viability, T/C [25]: 95.3%
viability, T/C [26]: 72.8%
viability, T/C [27]: 23.5%
viability, T/C [12]: 81.1%
viability, T/C [13]: 77.3%
viability, T/C [28]: 74.8%
viability, T/C [29]: 75%
viability, T/C [30]: 56.2%
viability, T/C [31]: 19.9%
viability, T/C [14]: 48.6%
viability, T/C [15]: 60.2%
viability, T/C [32]: 53.8%
viability, T/C [33]: 47.7%
viability, T/C [34]: 36.2%
viability, T/C [35]: 18.6%

NS(=O)(=O)OCC1CC(n2ccc3c(NC4CCc5ccccc54)ncnc32)CC1O (configuration not stated)
viability, T/C (compound 0.00949 µM): 140% and 117%
viability, T/C (compound 0.03 µM): 119% and 91%
viability, T/C (compound 0.0949 µM): 71.6% and 43.9%
viability, T/C (compound 0.3 µM): 43.7% and 22.5%
viability, T/C (compound 0.949 µM): 37.5% and 26.5%
viability, T/C (compound 3 µM): 34.5% and 26.1%
IC50 (curve of compound): 0.23 µM and 0.0799 µM

CCN(c1cc(-c2ccc(CN3CCOCC3)cc2)cc(C(=O)NCc2c(C)cc(C)[nH]c2=O)c1C)C1CCOCC1 + NC1CCC(NC2CC2c2ccccc2)CC1
IC50 [1]: > 3 µM
IC50 [2]: > 3 µM
IC50 [3]: > 3 µM
IC50 [4]: > 3 µM
IC50 [5]: 0.587 µM
viability, T/C [36]: 104%
viability, T/C [37]: 93.3%
viability, T/C [38]: 80.4%
viability, T/C [39]: 74.6%
viability, T/C [40]: 70.1%
viability, T/C [41]: 59.8%
viability, T/C [42]: 98.4%
viability, T/C [43]: 94%
viability, T/C [44]: 81.1%
viability, T/C [45]: 73.5%
viability, T/C [46]: 68.4%
viability, T/C [47]: 59.5%
viability, T/C [48]: 95.2%
viability, T/C [49]: 91.1%
viability, T/C [50]: 75.1%
viability, T/C [51]: 75.8%
viability, T/C [52]: 64%
viability, T/C [53]: 58.4%
viability, T/C [54]: 78%
viability, T/C [55]: 73.2%
viability, T/C [56]: 65.4%
viability, T/C [57]: 66%
viability, T/C [58]: 60%
viability, T/C [59]: 55.2%
viability, T/C [60]: 55.9%
viability, T/C [61]: 61.5%
viability, T/C [62]: 54.8%
viability, T/C [63]: 48.6%
viability, T/C [64]: 50.5%
viability, T/C [65]: 43.5%

COc1cc(C2c3cc4c(cc3C(OC3OC5COC(C)OC5C(O)C3O)C3COC(=O)C23)OCO4)cc(OC)c1O (configuration not stated) + NC1CCC(NC2CC2c2ccccc2)CC1
IC50 [1]: 0.153 µM
IC50 [2]: 0.146 µM
IC50 [3]: 0.13 µM
IC50 [4]: 0.0853 µM
IC50 [5]: 0.0475 µM
viability, T/C [36]: 93.9%
viability, T/C [37]: 79.8%
viability, T/C [38]: 56.2%
viability, T/C [39]: 41.6%
viability, T/C [40]: 15.6%
viability, T/C [41]: 8.25%
viability, T/C [42]: 98.8%
viability, T/C [43]: 79.2%
viability, T/C [44]: 56.1%
viability, T/C [45]: 40.7%
viability, T/C [46]: 16.8%
viability, T/C [47]: 9.41%
viability, T/C [48]: 91.1%
viability, T/C [49]: 73.1%
viability, T/C [50]: 56%
viability, T/C [51]: 37.6%
viability, T/C [52]: 18.3%
viability, T/C [53]: 10.5%
viability, T/C [54]: 79.6%
viability, T/C [55]: 60.5%
viability, T/C [56]: 50.1%
viability, T/C [57]: 38.2%
viability, T/C [58]: 17.8%
viability, T/C [59]: 13.3%
viability, T/C [60]: 59.5%
viability, T/C [61]: 52.3%
viability, T/C [62]: 44.4%
viability, T/C [63]: 33%
viability, T/C [64]: 17.7%
viability, T/C [65]: 14.4%

CC(C)c1c(-c2ccccc2)nc2c(C#N)c[nH]n2c1=O + NC1CCC(NC2CC2c2ccccc2)CC1
IC50 [1]: > 10 µM
IC50 [2]: > 10 µM
IC50 [3]: > 10 µM
IC50 [4]: > 10 µM
IC50 [5]: > 10 µM
viability, T/C [6]: 108%
viability, T/C [7]: 108%
viability, T/C [16]: 101%
viability, T/C [17]: 102%
viability, T/C [18]: 105%
viability, T/C [19]: 103%
viability, T/C [8]: 109%
viability, T/C [9]: 106%
viability, T/C [20]: 106%
viability, T/C [21]: 111%
viability, T/C [22]: 110%
viability, T/C [23]: 104%
viability, T/C [10]: 101%
viability, T/C [11]: 100%
viability, T/C [24]: 102%
viability, T/C [25]: 109%
viability, T/C [26]: 106%
viability, T/C [27]: 103%
viability, T/C [12]: 86.6%
viability, T/C [13]: 90.4%
viability, T/C [28]: 87.6%
viability, T/C [29]: 88.5%
viability, T/C [30]: 94.2%
viability, T/C [31]: 87.3%
viability, T/C [14]: 64.5%
viability, T/C [15]: 69.2%
viability, T/C [32]: 70.2%
viability, T/C [33]: 73.7%
viability, T/C [34]: 71.1%
viability, T/C [35]: 66.5%
